This is an account of results in patent US4857324A, “Exogenously acidified antacid compositions having cytoprotective properties” (priority 1987, dated 1989).

The subject of series [1] is ethanol induced gastric ulcers in the rat. The series can be described thus: ethanol-induced lesion assay (cytoprotective activity) in rats. The class given is in vivo, rat (male Sprague-Dawley). The note with it: for % INHIBITION: Table 4. An excerpt: The cytoprotective activity of a compound may be observed in both animals and man by noting the increase resistance of the gastrointestinal mucosa to the noxious effects of strong irritants, for example, the ulcerogenic effects of aspirin or indomethacin.
The ethanol-induced lesion assay is a standard test for cytoprotective activity and is described in an article by A. Robert et al entitled "Cytoprotection By Prostaglandins in Rats" published in Gastroenterology 77:433-443, 1979.
The ethanol-induced lesion assay was used to measure the cytoprotective ability of commercial antacids. Male Sprague-Dawley rats (supplier, Charles River, Willmington, Mass.) weighing between 120-150 g were used. The rats were fasted for 24 hr prior to use (water ad libitum). Before dosing, the animals were placed two per cage and denied water.
Animals were orally, i.e. intragastrically pretreated, one hour before ethanol administration with either RIOPAN Extra Strength suspension, MAALOX suspension, PGE2, or vehicle. One hour after ethanol administration, the rats were sacrificed by CO2 asphyxiation. The stomachs were removed and kept moist with saline until the lesions were scored. Ulcers were scored with the investigator unaware of the treatment groups (single blind). Ulcers were graded according to the following scale: […]
GRADE (Approximate length of lesion)
Absolute ethanol was given orally, 1 ml/rat. RIOPAN Extra Strength, 1080 mg magaldrate per 5 ml (lot 3RM4), and MAALOX, 200 mg Mg(OH)2 +225 mg Al(OH)3 per 5 ml (lot 64700), were administered orally as commercially available suspensions. The dose volume administered was based on the ED50 (ml of antacid/kg, see Table 1).
The dose volume of acidified antacid was adjusted for the volume of 6 N HCl added to the suspension. PGE2 was stored in 100% ethanol and diluted with normal saline before use.
Magaldrate of Example 1 and MAALOX of Example 2 were prepared as described above. The dose volume of nonbuffering antacid was adjusted for the volume of 6 N HCl added to the suspension during preparation. PGE2 was stored in 100% ethanol and diluted with normal saline before use.
The mean ulcer score of each treatment group was compared to the control group and expressed as the percent inhibition of ulcer formation.
The cytoprotective ED50 before and after acidification for the magaldrate of Example 1, referred to in this example as RIOPAN Extra Strength, and for MAALOX of Example 2 was calculated by standard regression analysis of the dose-response data. Confidence limits of 95% were calculated using the statistical differential method.
The spray dried powders of Examples 8 through 15 were tested for cytoprotective activity in the ethanol-induced lesion assay as described in Example 7.
The respective powders were admixed with sufficient water to form a liquid and the animals were dosed 400 milligrams of powder per kilo of body weight […]. in the test.
The experiments were performed using ten rats for each test composition and using the in vivo test procedure described in Example 7. The dose of acidified Extra Strength RIOPAN was selected for the test at 0.46 milliliters per kilogram of rat body weight. Approximately 4.6 times this amount (8 times on a mg/kg basis) was selected for the dose of commercial Extra Strength RIOPAN. Approximately 30 times this amount was selected for each dose of the Wenger et al solutions.
Two experiments were performed using ten rats for each test composition and again using the in vivo test procedure described in Example 7. In these experiments the dose in milliliters per kilogram of rat body weight was equal for each test composition.

For series [2] the following is noted: per 5 ml of suspension or liquid; cited from earlier work.
In another series the test system is ethanol induced ulcer. The note with it: Robert et al 1984; cited from earlier work.
The test system of a further series is gastric mucosa. Particulars: literature; cited from earlier work.
A further series relates to gastric acid secretion. Particulars: in vivo; cited from earlier work.

SMILES strings stand for the structures.

`O.O=S(=O)([O-])[O-].O=S(=O)([O-])[O-].[Al+3].[Al+3].[Al+3].[Al+3].[Al+3].[Mg+2].[Mg+2].[Mg+2].[Mg+2].[Mg+2].[Mg+2].[Mg+2].[Mg+2].[Mg+2].[Mg+2].[OH-].[OH-].[OH-].[OH-].[OH-].[OH-].[OH-].[OH-].[OH-].[OH-].[OH-].[OH-].[OH-].[OH-].[OH-].[OH-].[OH-].[OH-].[OH-].[OH-].[OH-].[OH-].[OH-].[OH-].[OH-].[OH-].[OH-].[OH-].[OH-].[OH-].[OH-]` [magaldrate, aluminum magnesium hydroxide sulfate]: in series [1] (rat, p.o.), the “effect on ethanol induced ulcers (in words)” value was “inhibit ethanol induced ulcers in rats”. For the same compound, the “acid neutralized / acid neutralization capacity (ANC)” value in series [2] is listed as 13.5 to 15 mEq. For `CN/C(=N/CCSCc1nc[nH]c1C)NC#N` [cimetidine], the “protection in the ethanol induced ulcer model” value in the series with ethanol induced ulcer was “do not protect in this model”. For the compound `CCCCC[C@H](O)/C=C/[C@H]1[C@H](O)CC(=O)[C@@H]1C/C=C\CCCC(=O)O` [PGE2], the “% INHIBITION” value in series [1] (dose 25 g/kg p.o. (so in the source)) amounted to 39%; in series [1] (dose 50 g/kg p.o. (so in the source)), 63%; in series [1] (dose 75 g/kg p.o. (so in the source)), 80%. The “effect on ethanol induced ulcers (in words)” value in series [1] (rat, p.o.) was “inhibited ethanol induced ulcer formation”. Besides, in series [1] (rat, p.o.), the “potency of PGE2 relative to acidified RIOPAN Extra Strength or acidified MAALOX” value is “approximately 1000 times”. As for `[OH][Al]([OH])[OH]` [Al(OH)3, aluminum hydroxide], in the series on gastric mucosa, the “gastric cytoprotection (in words)” value is on record as “have cytoprotective properties”. As to `[Cl][Al]([Cl])[Cl]` [aluminum chloride], in series [1] (ethanol-induced gastric lesion model), the “cytoprotective activity (in words)” value is listed as “does not exhibit such activity”. On to `CC(C)[N+](C)(CCOC(=O)C1c2ccccc2Oc2ccccc21)C(C)C` [propantheline bromide], for which the “protection in the ethanol induced ulcer model” value in the series on ethanol induced ulcer is on record as “do not protect in this model”. Regarding `CCCCC[C@H](O)/C=C/[C@@H]1[C@@H](C/C=C\CCCC(=O)O)[C@@H](O)C[C@H]1O` [prostaglandin F2], the “gastric cytoprotection (in words)” value in the series on gastric mucosa is on record as “does induce gastric cytoprotection”. In the series with gastric acid secretion, the “inhibition of gastric acid secretion” value is reported as “does not inhibit gastric acid secretion”.
